Key:
[1] = tested on: TSL2 (RNA, hairpin) AUUCCUUAAAUUAAGGAGU; assay: TO-PRO-1 fluorescence displacement; settings: Na+ (185 mM NaCl, 8 mM Na2HPO4); pH 7, 0.1 mM EDTA, 40 μg/mL BSA; 0.5 μM RNA; TO-PRO-1 (1 μM) displaced
[2] = tested on: TSL2 (RNA, hairpin) AUUCCUUAAAUUAAGGAGU; assay: RiboGreen fluorescence displacement; settings: Na+ (185 mM NaCl, 8 mM Na2HPO4); RiboGreen (300 nM) displaced
[3] = tested on: TSL2 (RNA, hairpin) AUUCCUUAAAUUAAGGAGU; assay: NMR (TOCSY) chemical-shift perturbation; settings: 40–50 μM RNA, 20 equivalents PK4C9; shifts at U2 and U19

EC50 [1] [µM] | binding [2] | binding [3] | SMILES
4.5 |  |  | N=C(N)c1ccc(Nc2ccc(-c3cc4ccc(C(=N)N)cc4[nH]3)cc2)cc1
85.9 |  |  | O=C(c1cnc(C(=O)c2c[nH]c3ccccc23)[nH]1)c1c[nH]c2ccccc12
16 | yes | yes | O=C(c1cnc(C(=O)c2c[nH]c3cc(O)ccc23)[nH]1)c1c[nH]c2ccccc12

— paper PMC5966403 (2018)
